This note sets out measurements from PMC2932657 (Chemistry & biology, 2010).

The assay has as its target PimD (Streptomyces natalensis, UniProt Q9EW92). The assay can be described thus: UV-visible difference spectrophotometric titration. The assay is classed as binding.

For the molecule `C[C@@H]1C/C=C/C=C/C=C/C=C/[C@H](O[C@@H]2O[C@H](C)[C@@H](O)[C@H](N)[C@@H]2O)C[C@@H]2O[C@](O)(C[C@@H](O)C/C=C/C=C/C(=O)O1)C[C@H](O)[C@H]2C(=O)O` [4,5-desepoxypimaricin], the Kd turned out to be 4 µM. In other words, the single-digit micromolar range.

The Kd is a measure of binding affinity in units of concentration. Low values mean a tighter complex, high ones a looser complex.
